From patent publication US8071768B2, “Alkylquinoline and alkylquinazoline kinase modulators” (Janssen Pharmaceutica, N.V., priority 2005, dated 2011) come the findings set out here.

This assay has as its target T1, TrkB (Homo sapiens, UniProt Q16620).
T1 construct: purchased Upstate 14-507M
The experiment in a line: Trk B Fluorescence Polarization Kinase Assay. It is filed as biochemical. To be noted: uncertainty ±10%. As to the method:
Trk B Fluorescence Polarization Kinase Assay (TrkB IC50 Data)
The compounds of the present invention are also specific inhibitors of TrkB. Selection of preferred compounds of Formula I for use as TrkB inhibitors was performed in the following manner. The TrkB assay utilized the fluorescein-labeled phosphopeptide and the anti-phosphotyrosine antibody included in the Panvera Phospho-Tyrosine Kinase Kit (Green) supplied by Invitrogen. When TrkB phosphorylated poly Glu4Tyr, the fluorescein-labeled phosphopeptide was displaced from the anti-phosphotyrosine antibody by the phosphorylated poly Glu4Tyr, thus decreasing the FP value. The TrkB kinase reaction was incubated at room temperature for 30 minutes under the following conditions: 50 nM TrkB (Upstate, catalog # 14-507M), 20 ug/mL poly Glu4Tyr, 150 uM ATP, 5 mM MgCl2, 1% compound in DMSO. The kinase reaction was stopped with the addition of EDTA. The fluorescein-labeled phosphopeptide and the anti-phosphotyrosine antibody were added and incubated for 30 minutes at room temperature. Data points were an average of triplicate samples. Inhibition and IC50 data analysis were done with GraphPad Prism using a non-linear regression fit with a multiparamater, sigmoidal dose-response (variable slope) equation.

Broadly, the IC50 is the concentration that gives 50% inhibition. Read a high IC50 as weaker potency in that assay.

T1 sequence (Q16620 32-822): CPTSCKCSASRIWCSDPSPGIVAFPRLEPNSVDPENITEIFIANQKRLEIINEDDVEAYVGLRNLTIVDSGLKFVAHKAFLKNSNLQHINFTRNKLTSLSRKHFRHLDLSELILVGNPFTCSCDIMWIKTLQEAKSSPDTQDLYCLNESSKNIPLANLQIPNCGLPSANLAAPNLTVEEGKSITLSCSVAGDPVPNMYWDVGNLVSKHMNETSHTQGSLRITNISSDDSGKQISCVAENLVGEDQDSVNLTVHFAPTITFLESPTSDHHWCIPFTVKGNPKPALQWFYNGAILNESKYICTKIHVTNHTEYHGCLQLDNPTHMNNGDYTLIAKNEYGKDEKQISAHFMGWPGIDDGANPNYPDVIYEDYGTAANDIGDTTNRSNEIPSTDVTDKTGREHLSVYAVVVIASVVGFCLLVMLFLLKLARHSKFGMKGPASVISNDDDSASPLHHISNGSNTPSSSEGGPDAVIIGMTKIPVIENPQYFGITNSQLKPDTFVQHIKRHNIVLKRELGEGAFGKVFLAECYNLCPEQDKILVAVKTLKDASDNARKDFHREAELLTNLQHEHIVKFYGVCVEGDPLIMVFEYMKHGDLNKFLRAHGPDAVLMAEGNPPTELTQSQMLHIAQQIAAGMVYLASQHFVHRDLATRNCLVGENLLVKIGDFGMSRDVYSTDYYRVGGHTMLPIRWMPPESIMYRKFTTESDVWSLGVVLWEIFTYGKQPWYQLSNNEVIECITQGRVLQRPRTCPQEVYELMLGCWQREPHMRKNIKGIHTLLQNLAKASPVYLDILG

Turning to `COc1cc2ncnc(C3CCN(C(=O)Nc4ccc(Cl)cc4)CC3)c2cc1OC` [Compound 49, 4-(6,7-Dimethoxy-quinazolin-4-yl)-piperidine-1-carboxylic acid (4-chloro-phenyl)-amide], the IC50 amounted to 22.3 µM. This lies in the double-digit micromolar range. The compound `CC(C)Oc1ccc(NC(=O)N2CCC(c3ncnc4ccc(C#CCN5CCOCC5)cc34)CC2)cc1` [Compound 15, 4-[6-(3-Morpholin-4-yl-prop-1-ynyl)-quinazolin-4-yl]-piperidine-1-carboxylic acid (4-isopropoxy-phenyl)-amide] gave an IC50 of 0.8 µM.

As to `CC(C)Oc1ccc(NC(=O)N2CCC(c3ncnc4cc(NCCCN5CCN(C)CC5)ccc34)CC2)cc1` [Compound 102, 4-{7-[3-(4-Methyl-piperazin-1-yl)-propylamino]-quinazolin-4-yl}-piperidine-1-carboxylic acid (4-isopropoxy-phenyl)-amide], the IC50 is 0.2 µM. `O=C(Nc1ccc(N2CCOCC2)cc1)N1CCC(c2ncnc3cc(OCCCN4CCCCC4)ccc23)CC1` [Compound 75] displayed an IC50 of over 20 µM. On to `CN1CCN(c2ccc3c(C4CCN(C(=O)Nc5ccc(N6CCOCC6)cc5)CC4)ncnc3c2)CC1` [Compound 135, 4-[7-(4-Methyl-piperazin-1-yl)-quinazolin-4-yl]-piperidine-1-carboxylic acid (4-morpholin-4-yl-phenyl)-amide], for which the IC50 is over 42 µM. Compound `CCN(CC)CCOc1ccc2c(C3CCN(C(=O)Nc4ccc(OC(C)C)cc4)CC3)ncnc2c1` [Compound 35, 4-[7-(2-Diethylamino-ethoxy)-quinazolin-4-yl)-piperidine-1-carboxylic acid (4-isopropoxy-phenyl)-amide] gave an IC50 of 1.5 µM. For the compound `CC(C)c1ccc(NC(=O)N2CCC(c3ccnc4ccccc34)CC2)cc1` [Compound 5, 4-Quinolin-4-yl-piperidine-1-carboxylic acid (4-isopropyl-phenyl)-amide], 0.7 µM corresponded to half-maximal inhibition (IC50). Compared with the last compound, the IC50 is about 2.1-fold lower. Compound `COc1cc2ncnc(C3CCN(C(=O)Nc4ccc(C(C)(C)C)cc4)CC3)c2cc1OC` [Compound 53, 4-(6,7-Dimethoxy-quinazolin-4-yl)-piperidine-1-carboxylic acid (4-tert-butyl-phenyl)-amide] displayed an IC50 of 1.1 µM.

`COc1cc2ncnc(C3CCN(C(=O)NC4CCCCC4)CC3)c2cc1OC` [Compound 42, 4-(6,7-Dimethoxy-quinazolin-4-yl)-piperidine-1-carboxylic acid cyclohexylamide] came in with an IC50 of 28.7 µM. As for `CN1CCC(COc2ccc3c(C4CCN(C(=O)Nc5ccc(N6CCCC6)nc5)CC4)ncnc3c2)CC1` [Compound 99, 4-[7-(1-Methyl-piperidin-4-ylmethoxy)-quinazolin-4-yl]-piperidine-1-carboxylic acid (6-pyrrolidin-1-yl-pyridin-3-yl)-amide], the figure is 6.41 µM. Consider `CC(C)Oc1ccc(NC(=O)N2CCC(c3ncnc4ccc(N5CCN(C)CC5)cc34)CC2)cc1` [Compound 131, 4-[6-(4-Methyl-piperazin-1-yl)-quinazolin-4-yl]-piperidine-1-carboxylic acid (4-isopropoxy-phenyl)-amide], for which the IC50 was found to be 5.31 µM. As for `COc1cc2ncnc(C3CCN(C(=O)Cc4ccc(C(C)C)cc4)CC3)c2cc1OC` [Compound 28, 1-[4-(6,7-Dimethoxy-quinazolin-4-yl)-piperidin-1-yl]-2-(4-isopropyl-phenyl)-ethanone], the figure is 0.1 µM; as for `CN(C)C(=O)N1CCN(c2ccc3c(C4CCN(C(=O)Nc5ccc(N6CCOCC6)cc5)CC4)ncnc3c2)CC1` [Compound 143, 4-{4-[1-(4-Morpholin-4-yl-phenylcarbamoyl)-piperidin-4-yl]-quinazolin-7-yl}-piperazine-1-carboxylic acid dimethylamide], 7.6 µM; as for `CC(C)Oc1ccc(NC(=O)N2CCC(c3ncnc4cc(N5CCN(C)CC5)ccc34)CC2)cc1` [Compound 103, 4-[7-(4-Methyl-piperazin-1-yl)-quinazolin-4-yl]-piperidine-1-carboxylic acid (4-isopropoxy-phenyl)-amide], 0.2 µM.
